# According to paper PMC10650131 (International Journal of Molecular Sciences, 2023):
# “And” between values parts separate entries of the source, which are not always exact repeats. Identical values can stand only once. “Also recorded” adds a separate entry of the source. Like-named read-outs stand apart in the source and are kept apart here.
# Tests used:
# h5HT1AR = molecular target: T1, h5HT1AR (Homo sapiens, UniProt P08908); assay: Cell-based functional GPCR assay, Ca2+ mobilization, Ba/F3-5HT1AR; settings: for % Stimulation, h5HT1AR: 100 μM compound, % of control agonist response (2.5 μM serotonin)
# T1 construct: host or cells: Ba/F3 (Ba/F3-5HT1AR)
# T1 sequence (P08908 1-422): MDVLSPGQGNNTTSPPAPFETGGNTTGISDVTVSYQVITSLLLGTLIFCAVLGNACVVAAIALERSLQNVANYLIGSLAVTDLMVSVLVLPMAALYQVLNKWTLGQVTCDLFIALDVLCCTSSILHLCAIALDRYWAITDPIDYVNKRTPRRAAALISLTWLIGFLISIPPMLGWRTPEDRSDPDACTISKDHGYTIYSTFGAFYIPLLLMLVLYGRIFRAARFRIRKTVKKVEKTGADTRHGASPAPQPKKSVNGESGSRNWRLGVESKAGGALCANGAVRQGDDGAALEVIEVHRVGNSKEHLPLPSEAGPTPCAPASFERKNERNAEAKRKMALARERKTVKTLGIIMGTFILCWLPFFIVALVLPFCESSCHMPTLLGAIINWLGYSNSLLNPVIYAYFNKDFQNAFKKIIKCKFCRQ
# Protocol: (§1) Cell-based functional GPCR assays were conducted in CHO cells and Ba/F3 cells transfected with a plasmid containing the GPCR gene of interest. The functional activity of the test compounds (agonist or antagonist) was evaluated by measuring their effects on cAMP modulation or Ca^2+ ion mobilization, depending on the receptor type. All assays were performed at Eurofins Cerep (Le Bois I’Eveque, France) following their in-house protocol, as stated in our previous reports.
# (§2) The functional activity of the test compounds on D2R and 5HT1AR was tested by fluorimetrically evaluating their effect on cytosolic Ca^2+ ion mobilization. […] Then, a fluorescent probe (Fluo8, AAT Bioquest, Sunnyvale, CA, USA) mixed with probenecid in HBSS (Invitrogen, Carlsbad, CA, USA) supplemented with […] (Invitrogen) (pH 7.4) was added to each well, and the cells were allowed to equilibrate for 60 min at 37 °C. […] We then measured the fluorescent intensity, which varied in proportion to the free cytosolic Ca^2+ ion concentration.
# hD2LR = molecular target: T2, hD2LR (Homo sapiens, UniProt P14416); assay: Cell-based functional GPCR assay, Ca2+ mobilization, CHO-D2R; settings: for % Stimulation, hD2LR: 100 μM compound, % of control agonist response (10 μM DA)
# T2 construct: host or cells: CHO (CHO-D2R)
# Protocol: as §1, §2
# hMAO-A = molecular target: T3, hMAO-A (Homo sapiens, UniProt P21397); assay: In vitro hMAO-A inhibition and enzyme kinetics, chemiluminescent MAO-Glo assay; format: biochemical; settings: recombinant hMAO-A; mean ± SD of triplicate experiments
# T3 construct: purchased Sigma-Aldrich
# T3 sequence (P21397 1-527): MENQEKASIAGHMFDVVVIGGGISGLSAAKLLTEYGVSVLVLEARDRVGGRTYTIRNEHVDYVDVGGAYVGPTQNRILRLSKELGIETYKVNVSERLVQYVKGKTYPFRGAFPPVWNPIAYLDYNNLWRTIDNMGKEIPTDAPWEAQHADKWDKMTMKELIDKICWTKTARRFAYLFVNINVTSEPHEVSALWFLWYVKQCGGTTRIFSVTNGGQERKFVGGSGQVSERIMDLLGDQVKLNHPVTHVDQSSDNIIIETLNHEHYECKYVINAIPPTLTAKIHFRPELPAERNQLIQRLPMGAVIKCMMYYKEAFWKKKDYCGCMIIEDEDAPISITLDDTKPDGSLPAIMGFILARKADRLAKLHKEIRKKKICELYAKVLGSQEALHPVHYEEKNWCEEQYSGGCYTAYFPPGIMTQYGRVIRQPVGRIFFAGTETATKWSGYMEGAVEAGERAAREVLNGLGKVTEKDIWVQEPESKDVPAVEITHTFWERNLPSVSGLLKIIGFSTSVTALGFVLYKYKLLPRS
# Protocol: (§3) A chemiluminescent assay was performed in a white, opaque 96-well plate using the MAO-Glo kit (Promega, Madison, WI, USA) to evaluate human monoamine oxidase (hMAO) inhibitory potential. Detailed experimental conditions and procedures were reported previously. The test compounds were evaluated at different concentrations to obtain an IC50 value. The percent of inhibition (%) was obtained with the following equation: % Inhibition = (Ac − As)/Ac × 100, where Ac is the absorbance of the control and As is the absorbance of the sample. For hMAO-A, clorgyline was used as a positive control.
# (§4) Kinetic parameters were analyzed using SigmaPlot (v12.0, SPP Inc., Chicago, IL, USA).
# hD1R = hD1R (Homo sapiens, UniProt P21728); assay: Cell-based functional GPCR assay, cAMP, CHO-D1R; settings: for % Stimulation, hD1R: 100 μM compound, % of control agonist response (10 μM DA)
# Protocol: as §1
# (§5) The functional activity of the test compounds on D1R, D3R, and D4R was assessed by evaluating the effect on cAMP modulation.
# hD4.4R = molecular target: T4, hD4.4R (Homo sapiens, UniProt P21917); assay: Cell-based functional GPCR assay, cAMP, CHO-D4R; settings: for % Stimulation, hD4.4R: 100 μM compound, % of control agonist response (300 nM DA)
# T4 sequence (P21917 1-419): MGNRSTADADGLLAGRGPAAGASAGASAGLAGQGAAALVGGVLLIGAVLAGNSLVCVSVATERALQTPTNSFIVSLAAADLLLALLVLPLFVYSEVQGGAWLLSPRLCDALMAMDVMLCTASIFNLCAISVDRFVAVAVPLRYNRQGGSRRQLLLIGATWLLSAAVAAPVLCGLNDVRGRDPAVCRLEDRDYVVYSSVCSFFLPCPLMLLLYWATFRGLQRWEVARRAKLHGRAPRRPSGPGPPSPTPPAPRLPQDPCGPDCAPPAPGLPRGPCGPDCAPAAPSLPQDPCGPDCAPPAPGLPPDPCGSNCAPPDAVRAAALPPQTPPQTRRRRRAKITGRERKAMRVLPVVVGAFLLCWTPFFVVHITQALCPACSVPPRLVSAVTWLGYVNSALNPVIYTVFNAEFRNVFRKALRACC
# Protocol: as §1, §5
# hMAO-B = molecular target: T5, hMAO-B (Homo sapiens, UniProt P27338); assay: In vitro hMAO-B inhibition and enzyme kinetics, chemiluminescent MAO-Glo assay; format: biochemical; settings: for SI (selective index): ratio of hMAO-A IC50/hMAO-B IC50; for IC50: recombinant hMAO-B, mean ± SD of triplicate experiments
# T5 construct: purchased Sigma-Aldrich
# T5 sequence (P27338 1-520): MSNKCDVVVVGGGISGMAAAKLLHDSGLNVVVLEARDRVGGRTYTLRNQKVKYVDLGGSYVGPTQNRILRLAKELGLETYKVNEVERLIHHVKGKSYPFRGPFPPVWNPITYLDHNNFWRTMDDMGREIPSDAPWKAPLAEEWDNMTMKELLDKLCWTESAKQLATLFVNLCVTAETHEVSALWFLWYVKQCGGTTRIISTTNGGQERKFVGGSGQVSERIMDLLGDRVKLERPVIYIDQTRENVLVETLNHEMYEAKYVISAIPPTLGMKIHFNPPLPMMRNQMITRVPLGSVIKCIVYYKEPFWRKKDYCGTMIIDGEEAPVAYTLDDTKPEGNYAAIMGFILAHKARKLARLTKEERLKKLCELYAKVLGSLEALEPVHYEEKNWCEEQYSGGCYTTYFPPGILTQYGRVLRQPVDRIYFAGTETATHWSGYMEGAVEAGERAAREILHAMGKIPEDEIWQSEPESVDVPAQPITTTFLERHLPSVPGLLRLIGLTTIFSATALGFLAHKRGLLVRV
# Protocol: as §3, §4
# hD3R = hD3R (Homo sapiens, UniProt P35462); assay: Cell-based functional GPCR assay, cAMP, CHO-D3R
# Protocol: as §1, §5
# MAO-A = tested on: MAO-A; design: method as in earlier work; settings: ref 49 (Park et al. 2020); cited from earlier work
# [1] = design: method as in PMID 31173966; settings: cited from earlier work
# male C57BL/6 mice = assay: Forced swim test; format: in vivo, mouse
# Protocol: Male C57BL/6 mice (22–26 g, 7 weeks) were purchased from Orient Bio Inc. (Seongnam-si, Korea), a branch of Charles River Laboratories (Seoul, Republic of Korea), and kept in the University Animal Care Unit for 1 week before the experiments. Five animals were housed per cage and allowed access to water and food ad libitum; the environment was maintained at a constant temperature (23 ± 1 °C) and humidity (60 ± 10%) under a 12 h light/dark cycle (the lights were on from 07:30 to 19:30 h). The treatment and maintenance of the animals were carried out according to the Animal Care and Use Guidelines of Dong-A University, Republic of Korea. All in vivo experiments were performed according to the protocols approved by the Institutional Animal Care and Use Committee of Dong-A University (approved protocol numbers: DIACUC-approved-17-20) and were per the National Institutes of Health guidelines. A forced swim test (FST) was performed in a transparent cylindrical glass cylinder with a diameter of 14 cm and a height of 25 cm filled with 20 cm of water (24 ± 2 °C). Mice were habituated to the experimental environment 1 h before the test. […] Mice were immersed in water and recorded with a video camera for a total of 6 min. Immobility time was analyzed for the last 4 min of the 6 min using a video-based Ethovision System (Noldus, Wageningen, The Netherlands).
# Chain of hD3R (P35462 whole entry): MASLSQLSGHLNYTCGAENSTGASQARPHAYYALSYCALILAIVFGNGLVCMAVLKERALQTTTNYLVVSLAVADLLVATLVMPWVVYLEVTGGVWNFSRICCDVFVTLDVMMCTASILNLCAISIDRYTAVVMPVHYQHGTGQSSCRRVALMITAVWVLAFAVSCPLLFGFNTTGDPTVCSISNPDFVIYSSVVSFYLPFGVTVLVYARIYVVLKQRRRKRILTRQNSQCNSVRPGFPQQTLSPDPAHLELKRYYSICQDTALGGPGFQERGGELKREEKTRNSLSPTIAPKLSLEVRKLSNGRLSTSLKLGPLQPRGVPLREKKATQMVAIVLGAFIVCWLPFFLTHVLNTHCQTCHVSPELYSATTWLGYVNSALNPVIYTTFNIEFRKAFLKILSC
# T2 sequence (P14416 whole entry): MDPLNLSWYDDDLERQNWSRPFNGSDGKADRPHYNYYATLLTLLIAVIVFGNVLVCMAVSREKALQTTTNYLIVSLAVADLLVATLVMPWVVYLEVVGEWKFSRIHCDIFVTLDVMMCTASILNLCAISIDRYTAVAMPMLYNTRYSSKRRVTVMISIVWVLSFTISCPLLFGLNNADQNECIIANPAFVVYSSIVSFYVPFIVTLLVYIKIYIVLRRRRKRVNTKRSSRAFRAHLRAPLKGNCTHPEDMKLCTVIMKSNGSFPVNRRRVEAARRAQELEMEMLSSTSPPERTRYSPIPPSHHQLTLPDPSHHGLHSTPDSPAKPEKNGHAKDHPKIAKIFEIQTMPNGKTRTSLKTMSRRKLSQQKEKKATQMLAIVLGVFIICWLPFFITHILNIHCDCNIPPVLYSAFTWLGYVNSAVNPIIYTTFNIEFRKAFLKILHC
# Chain of hD1R (P21728 whole entry): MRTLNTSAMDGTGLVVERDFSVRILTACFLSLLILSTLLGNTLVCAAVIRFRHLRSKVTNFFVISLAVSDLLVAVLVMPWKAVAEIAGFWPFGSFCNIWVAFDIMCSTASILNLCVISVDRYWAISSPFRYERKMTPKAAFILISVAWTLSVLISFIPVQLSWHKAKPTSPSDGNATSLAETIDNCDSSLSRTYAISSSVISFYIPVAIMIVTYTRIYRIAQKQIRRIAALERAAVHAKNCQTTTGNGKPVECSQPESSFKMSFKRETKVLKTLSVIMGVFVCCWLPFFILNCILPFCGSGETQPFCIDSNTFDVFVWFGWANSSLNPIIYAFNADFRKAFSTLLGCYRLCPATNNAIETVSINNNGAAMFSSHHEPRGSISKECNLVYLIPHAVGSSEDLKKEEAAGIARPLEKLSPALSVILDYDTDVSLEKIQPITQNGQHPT
inhibition at 100 µM (h5HT1AR),"% Stimulation, h5HT1AR (h5HT1AR)",inhibition at 100 µM (hD2LR),"% Stimulation, hD2LR (hD2LR)",IC50 (hMAO-A),inhibition at 100 µM (hD1R),"% Stimulation, hD1R (hD1R)",inhibition at 100 µM (hD4.4R),"% Stimulation, hD4.4R (hD4.4R)",SI (selective index) (hMAO-B),IC50 (hMAO-B),inhibition at 100 µM (hD3R),SMILES,other results
16.8%,2.5 ± 0.42%,-18.6%,−13.8 ± 0.28%,114 ± 3.39 µM,47.8%,5.65 ± 11.53%,-27.3%,33.63 ± 12.10%,15.82,7.19 ± 0.32 µM,-7.97%,"COc1ccc(-c2coc3cc(O)ccc3c2=O)cc1O [Compound 3, calycosin]","Ki (hMAO-B; Lineweaver–Burk plot and its secondary plots, read-out: Inhibition constants (Ki) hMAO-B): 2560 nM; Inhibition mode, hMAO-B (hMAO-B; secondary plot of slopes (Kmapp/Vmaxapp) versus concentrations of inhibitor): Competitive"
7.3%,−1.1 ± 0.42%,-25.8%,−18.35 ± 0.78%,177 ± 7.8 µM,22.2%,−3.1 ± 5.66%,-11.2%,35.8 ± 10.59%,2.48,~70 µM and 71.2 µM,-8%,"O=c1c(-c2ccc(O)c(O)c2)coc2cc(O)ccc12 [Compound 2, 3′,4′,7-trihydroxyisoflavone]",
18.1%,−2.9 ± 0.28%,-40%,−22.45 ± 2.05%,,0.7%,6.95 ± 14.07%,134%,10.33 ± 7.46%,,> 150 µM,-0.97%,"O=c1cc(-c2ccc(O)c(O)c2)oc2cc(O)ccc12 [Compound 1, 3′,4′,7-trihydroxyflavone]","inhibition at 12.5 µM (hD4.4R; 12.5 µM compound, read-out: % inhibition of the response of the control agonist, hD4.4R): 40.9%; inhibition at 25 µM (hD4.4R; 25 µM compound, read-out: % inhibition of the response of the control agonist, hD4.4R): 57.6%; inhibition at 50 µM (hD4.4R; 50 µM compound, read-out: % inhibition of the response of the control agonist, hD4.4R): 69%; IC50 (hD4.4R; read-out: IC50, antagonist effect at hD4.4R): 22.5 ± 2.18 µM; Immobility time in forced swimming test (male C57BL/6 mice; 3, 10, and 30 mg/kg p.o., 1 h before FST): did not reduce the immobility time; also recorded: none of those doses alleviated the immobility time; also recorded: did not show an antidepressant effect; % Stimulation, hD3R (hD3R; 100 μM compound, % of control agonist response (300 nM DA)): 38.5 ± 5.94%"

# Continued, molecule first:
SMILES,inhibition at 100 µM (h5HT1AR),"% Stimulation, h5HT1AR (h5HT1AR)",inhibition at 100 µM (hD2LR),"% Stimulation, hD2LR (hD2LR)",IC50 (hMAO-A),inhibition at 100 µM (hD1R),"% Stimulation, hD1R (hD1R)",inhibition at 100 µM (hD4.4R),"% Stimulation, hD4.4R (hD4.4R)",SI (selective index) (hMAO-B),IC50 (hMAO-B),inhibition at 100 µM (hD3R),other results
"O=c1cc(-c2ccc(O)c(O)c2)oc2cc(O)cc(O)c12 [luteolin, 3′,4′,5,7-tetrahydroxyflavone]",,,,,,,,,,,,,IC50 (MAO-A): 8.57 ± 0.47 µM
C=C(C)[C@@H]1CCC(C)=C[C@H]1c1c(O)cc(CCCCC)cc1O [cannabidiol],,,,,,,,,,,,,Effect on depressive symptoms ([1]; 10 mg/kg i.v. weekly for four weeks): significantly improve depressive symptoms; Effect on depressive symptoms ([1]; 10 mg/kg p.o.): no significant effects; Effect on depressive symptoms ([1]; 100 mg/kg p.o. weekly for four weeks): significantly improve depressive symptoms
"CNCCCN1c2ccccc2CCc2ccccc21 [desipramine, reference compound]",,,,,,,,,,,,,"Immobility time in forced swimming test (male C57BL/6 mice; 15 mg/kg dose p.o., positive control): significant reduction in immobility time"
